Results reported in PMC6891447, “Andean Prumnopitys Andina (Podocarpacae) Fruit Extracts: Characterization of Secondary Metabolites and Potential Cytoprotective Effect” (Molecules, 2019).
Read-outs that look alike come from different tables or passages of the source.

Columns and labels:
[1] = DPPH radical discoloration (scavenging) assay; format: physicochemical
Method: (§1) The antioxidant capacity of the extracts was evaluated by the discoloration of the DPPH radical, the ferric reducing power (FRAP), the scavenging of the ABTS radical (TEAC) and the oxygen radical absorbance capacity (ORAC). […] Trolox and quercetin were used as reference compounds. The DPPH, FRAP and TEAC assays were performed according to Jiménez-Aspee et al.. The ORAC assay was carried out following the methodology of Ou et al. with slight modifications. All determinations were carried out in triplicate and results are presented as mean values ± standard deviation (SD).

[2] = Ferric reducing power (FRAP) assay; format: physicochemical
Method: as §1

[3] = Scavenging of the ABTS radical (TEAC) assay; format: physicochemical
Method: as §1

[4] = Oxygen radical absorbance capacity (ORAC) assay; format: physicochemical
Method: as §1

α-glucosidase = α-glucosidase (Saccharomyces cerevisiae, UniProt P53341); assay: α-Glucosidase inhibition assay; format: biochemical; settings: read-out: α-Glucosidase Inhibition (percentage of inhibition)
Description: The chemicals, enzymes and reagents acquired from Sigma-Aldrich (St. Louis, MO, USA) were the following: α-amylase from porcine pancreas (A3176; EC 3.2.1.1), α-glucosidase from Saccharomyces cerevisiae (G5003; EC 3.2.1.20), acetic acid, AlCl3, Amberlite XAD7 HP, catechin, DPPH (2,2-diphenyl-1-picrylhydrazyl radical), 3,5-dinitrosalicylic acid, porcine pancreas lipase type II (L-3126; EC 3.1.1.3), Na2CO3, 4-nitrophenyl-α-D-glucopyranoside, p-nitrophenyl palmitate, p-anisaldehyde, quercetin, sodium acetate, starch, 2,4,6-tri(2-pyridyl)1,3,5-triazine (TPTZ), trichloracetic acid, thiobarbituric acid, and triton X-100. The following materials were purchased from Merck (Darmstadt, Germany): 6-hydroxy-2,5,7,8-tetramethylchroman-2-carboxylic acid (Trolox), ethyl acetate, FeCl3 × 6H2O, potassium sodium tartrate and HPLC-grade methanol. Pepsin A (P3271) was from US Biological (Salem, MA, USA). […]
Potential inhibition of α-glucosidase by XAD7 extracts and fractions from the LH-20 column was tested under conditions that simulate, at least in part, those of the small intestine. […] Resulting enzyme activity was then measured by adding 20 µL of 5 mM p-nitrophenyl-α-D-glucopyranoside into the wells and incubating for additional 15 min at 37 °C. […] Final absorbance was measured at 415 nm in a Biotek ELx801 (Winooski, VT, USA) microplate reader. […]

α-amylase = target: T1, α-amylase (Sus scrofa, UniProt P00690); assay: α-Amylase inhibition assay; format: biochemical, porcine; settings: Sephadex fractions
T1 construct: purchased Sigma-Aldrich A3176; host or cells: porcine pancreas
T1 sequence (P00690 16-511): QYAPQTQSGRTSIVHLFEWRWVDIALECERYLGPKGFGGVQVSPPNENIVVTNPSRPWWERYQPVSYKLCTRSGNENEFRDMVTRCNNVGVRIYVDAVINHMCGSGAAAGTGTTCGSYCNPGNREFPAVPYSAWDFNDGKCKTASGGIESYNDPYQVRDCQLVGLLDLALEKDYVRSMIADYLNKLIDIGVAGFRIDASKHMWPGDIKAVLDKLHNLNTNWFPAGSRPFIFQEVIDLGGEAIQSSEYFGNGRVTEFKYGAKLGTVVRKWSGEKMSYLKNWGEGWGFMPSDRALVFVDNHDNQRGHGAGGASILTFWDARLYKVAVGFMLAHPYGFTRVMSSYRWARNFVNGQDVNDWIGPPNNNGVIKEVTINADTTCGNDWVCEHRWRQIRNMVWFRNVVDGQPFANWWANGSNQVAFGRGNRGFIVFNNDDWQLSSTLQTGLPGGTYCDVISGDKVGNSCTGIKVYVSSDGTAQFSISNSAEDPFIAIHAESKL

pancreatic lipase = target: T2, pancreatic lipase (Sus scrofa, UniProt P00591); assay: Pancreatic lipase inhibition assay; format: biochemical, porcine; settings: Sephadex fractions
T2 construct: purchased Sigma-Aldrich L-3126; host or cells: porcine pancreas
T2 sequence (P00591 1-450): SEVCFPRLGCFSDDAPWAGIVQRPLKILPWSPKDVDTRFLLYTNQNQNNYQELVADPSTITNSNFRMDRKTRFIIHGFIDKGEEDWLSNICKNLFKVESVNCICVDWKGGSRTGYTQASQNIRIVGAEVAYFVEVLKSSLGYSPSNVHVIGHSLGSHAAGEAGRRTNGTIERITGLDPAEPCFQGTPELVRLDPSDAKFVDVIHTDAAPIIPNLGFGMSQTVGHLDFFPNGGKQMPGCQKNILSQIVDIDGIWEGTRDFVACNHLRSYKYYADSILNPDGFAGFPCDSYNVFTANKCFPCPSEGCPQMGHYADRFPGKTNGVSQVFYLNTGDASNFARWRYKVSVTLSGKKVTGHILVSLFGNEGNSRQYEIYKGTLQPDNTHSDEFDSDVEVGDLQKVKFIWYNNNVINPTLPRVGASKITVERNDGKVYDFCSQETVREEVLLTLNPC

AGS cells [5] = assay: Cytoprotection against H2O2-induced stress in AGS cells; format: cell-based; settings: Homo sapiens, rutin 100 µg/mL, non-significant, H2O2 control 47.4%, read-out: Cell viability after H2O2 challenge
Method: Human AGS gastric adenocarcinoma cells (ATCC CRL-1739, American Type Culture Collection, Manassas, VA, USA) were grown as monolayers in a humidified incubator with 5% CO2 in air at 37 °C in HamF-12 medium supplemented with 2 mM L-glutamine and 1.5 g/L sodium bicarbonate. The medium contained 10% heat inactivated fetal bovine serum (FBS), 100 IU/mL penicillin and 100 µg/mL streptomycin. Cells were plated at 25,000 cells/mL in 96-well plates, with 100 µL per well. Cells were counted by means of the trypan blue exclusion assay in a Neubauer chamber. All the cell-based experiments were carried out using a pool of the extracts from different collection years.
Confluent cultures of AGS cells were incubated for 16 h with 100 µL of the different samples at concentrations ranging from 0 to 400 µg extract/mL). The flavonol rutin (100 µg/mL) was included in this assay for comparison purposes. The sample was dissolved in medium supplemented with 2% FBS and antibiotics. Culture medium was completely removed by vacuum aspiration at the end of the incubation, and cells were washed with 100 µL of PBS. […] Cell viability was determined by means of the MTT reduction assay, as described above. […] Each concentration of the assayed samples was evaluated in quintuplicate. Results are expressed as percentage of the 100% viability control.

AGS cells [6] = assay: Intracellular total antioxidant activity (TAA) in AGS cells; format: cell-based, human; settings: rutin 100 µg/mL; non-significant
Method: The TAA was carried out according to Ferrari et al.. AGS cells were plated at 25,000 cells/mL in 3 cm diameter Petri dishes. One day after confluence, AGS cells were pre-incubated overnight (16 h) with 3 mL of the pool of P. andina XAD7 extracts, in different concentrations (0–400 µg extract/mL). For comparison purposes, rutin (100 µg/mL) was also included in this experiment. All samples were prepared in medium supplemented with 2% FBS. Cells treated only with culture medium were used as the control of the basal antioxidant level. The next morning, cells were collected with a cell scraper and centrifuged at 900× g during 5 min. […]
The ABTS radical was prepared by mixing 5 mL of a 7.46 mM ABTS solution with 88 μL of a 140 mM potassium persulfate solution. […] At the end of the incubation, the solution was diluted with MeOH until an absorbance value of 0.700 ± 0.050 at 734 nm was reached. […] After 6 min, absorbance was measured at 734 nm in a UV–Vis spectrophotometer. The absorbance was interpolated and converted to Trolox equivalents using a Trolox calibration curve. […] All the determinations were carried out in triplicate and results were expressed as µmol Trolox equivalents/mg protein ±SD.

[7] = TBARS generation in turkey meat under simulated gastric digestion; settings: pH 3.0, 37 °C, 1 h
Method: This assay was carried out according to Kanner et al., with slight modifications. Briefly, the simulated gastric fluid (SGF) contained final concentration of NaCl (0.2% w/v), pepsin (0.32% w/v) and 700 µL of HCl (37%), adjusted to a final volume of 100 mL with ultrapure water. Thirty grams of turkey meat were ground with 90 mL of the SGF solution for 1 min in a blender and adjusted to pH 3.0 with 100 µL of 7N HCl. Fifteen mL of the SGF-meat mixture was aliquoted in 100 mL Erlenmeyer flasks. The powdered extract was weighed and added to the homogenate (meat–liquid mixture) to achieve final concentrations ranging from 0–500 µg/mL in the 15 mL SGF-meat mixture. The P. andina sample consisted in a pool of the extracts from different collection years. The flasks were placed in a shaking water bath at 37 °C during 1 h. At the end of the incubation, 800 µL of the samples, controls (without extracts) and blanks (without meat) were centrifuged at 20,000× g for 15 min at 4 °C. Lipid peroxidation was determined quantifying TBARS. For this purpose, the supernatant resulting from the centrifugation (750 µL) was mixed with 750 µL of TBA solution (0.37% TBA, 15% trichloroacetic acid in 0.25 N HCl), and boiled during 20 min. The absorbance was determined at 532 nm. All determinations were carried out in triplicate and results are presented as IC50 values (μg extracts/mL) ±SD. […]

Sequence of α-glucosidase (P53341 whole entry): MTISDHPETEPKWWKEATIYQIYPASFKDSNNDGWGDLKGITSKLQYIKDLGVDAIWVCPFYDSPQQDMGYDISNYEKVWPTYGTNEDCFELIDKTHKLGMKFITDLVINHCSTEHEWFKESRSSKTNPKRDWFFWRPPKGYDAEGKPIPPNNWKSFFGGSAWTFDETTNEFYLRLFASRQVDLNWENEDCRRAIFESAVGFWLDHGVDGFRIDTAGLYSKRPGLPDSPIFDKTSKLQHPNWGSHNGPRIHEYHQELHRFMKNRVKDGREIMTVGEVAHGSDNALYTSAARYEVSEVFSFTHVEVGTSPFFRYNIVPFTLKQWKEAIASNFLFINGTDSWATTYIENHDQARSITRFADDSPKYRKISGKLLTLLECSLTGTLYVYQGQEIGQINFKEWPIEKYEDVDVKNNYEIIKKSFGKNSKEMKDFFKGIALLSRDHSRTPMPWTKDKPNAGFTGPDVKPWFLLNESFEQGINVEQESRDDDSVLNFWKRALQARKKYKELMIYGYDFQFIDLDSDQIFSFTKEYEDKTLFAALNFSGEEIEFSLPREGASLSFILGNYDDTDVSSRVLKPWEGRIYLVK

With `CC(C)(O)CC[C@@H](O)[C@](C)(O)[C@H]1CC[C@@]2(O)C3=CC(=O)[C@@H]4C[C@@H](O)[C@@H](O)C[C@]4(C)[C@H]3CC[C@]12C` [20-hydroxyecdysone] the DPPH assay activity ([1]; isolated compound) was “inactive”, the FRAP value ([2]; isolated compound) was 72.4 ± 7.9 µmol Trolox equivalents/g sample and the TEAC assay activity ([3]; isolated compound) was “inactive”. The ORAC value ([4]; isolated compound) was 827.3 ± 30.9 µmol TE/g of sample, the inhibition at 50 µg/mL (α-glucosidase; at a concentration of 50 µg/mL, Sephadex fractions / isolated compounds) was 40.1 ± 1.3% and the “α-Amylase Inhibiton” value (α-amylase) was “inactive”. The “Pancreatic Lipase Inhibition” value (pancreatic lipase) was “inactive”.

For `O=c1c(O)c(-c2ccc(O)c(O)c2)oc2cc(O)cc(O)c12` [Quercetin, quercetin, reference compound], the “DPPH (SC50)” value ([1]; n = 3, mean ± SD) was 7.8 ± 0.3 µg XAD7 Extract/mL, the FRAP ([2]; n = 3, mean ± SD) was 1077.2 ± 16.4 µmol TE/g XAD7 Extract and the TEAC ([3]; n = 3, mean ± SD) was 8157.9 ± 22.1 µM TE/g XAD7 Extract. The ORAC ([4]; n = 3, mean ± SD) was 22561.6 ± 808.8 µmol TE/g XAD7 Extract.

In the case of `C[C@@H]1O[C@@H](OC[C@H]2O[C@@H](Oc3c(-c4ccc(O)c(O)c4)oc4cc(O)cc(O)c4c3=O)[C@H](O)[C@@H](O)[C@@H]2O)[C@H](O)[C@H](O)[C@H]1O` [rutin, quercetin 3-O-rutinoside], the inhibition at 50 µg/mL (α-glucosidase) is reported as 44.8 ± 1.6%, the “α-Amylase Inhibiton” value (α-amylase) is reported as “inactive” and the “Pancreatic Lipase Inhibition” value (pancreatic lipase) is reported as “inactive”. The viability at 100 µg/mL (AGS cells [5]) was 46.4% and the “Increase of total intracellular antioxidant activity (TAA) vs untreated controls” value (AGS cells [6]) was 48.6%.

In the case of `N=C(N)NN` [aminoguanidine, Aminoguanidine], the “IC50 of TBARS generation in turkey meat” value [7] is reported as 317.8 ± 20.4 µg/mL.
